Literature values, collected in PMC9510668 (Frontiers in Pharmacology, 2022).
Converted amounts (≈) assume the structure as drawn. Like-named read-outs stand apart in the source and are kept apart here.

What was measured:
[1] = healthy human, mean, cited from earlier work
CYP3A5 = test system: CYP3A5; set-up: method as in ref [6] (a number printed in a supplementary file, which may have a reference list of its own: not looked up in the article's list); conditions: ref [6]; cited from earlier work
[2] = cited from earlier work
BCRP1 = biological target: BCRP1; set-up: method as in ref [8] (a number printed in a supplementary file, which may have a reference list of its own: not looked up in the article's list); conditions: lapatinib; ref [8]; cited from earlier work
OATP1B1 = conditions: lapatinib; ref [8]; cited from earlier work
P-gp = conditions: lapatinib; ref [8]; cited from earlier work
CYP3A4 [3] = test system: CYP3A4; set-up: method as in ref [6] (a number printed in a supplementary file, which may have a reference list of its own: not looked up in the article's list); conditions: ref [6]; cited from earlier work
[4] = cited from earlier work; remark: listed apart in the source
[5] = set-up: method as in Röhss and Hedenström, 2002; conditions: 40 mg OD orally for 5 days; ref Röhss and Hedenström, 2002; cited from earlier work
[6] = human; ref Heath et al., 2010; cited from earlier work
VEGFR = conditions: ref Heath et al., 2010; cited from earlier work
CYP3A4 [7] = conditions: read-out: Ki CYP3A4; ketoconazole; ref [1]; cited from earlier work
UGT1A1 = test system: UGT1A1; set-up: method as in ref [2] (a number printed in a supplementary file, which may have a reference list of its own: not looked up in the article's list); conditions: ref [2]; cited from earlier work

CS(=O)(=O)CCNCc1ccc(-c2ccc3ncnc(Nc4ccc(OCc5cccc(F)c5)c(Cl)c4)c3c2)o1 [lapatinib]
AUC0-48, Observed ([1]; lapatinib): 5328.9 ng·h/mL
Cmax, Observed ([1]; lapatinib): 311.0 ng/mL
Tmax, Observed ([1]; lapatinib): 3 h
CPY3A5 CLint (CYP3A5): 5 µL/min/nmol
Water Solubility in FaSSIF pH=6.5 ([2]; ref [3]): 5.4 μg/mL
Ki (BCRP1): 25 nM
Ki (OATP1B1): 4000 nM
Ki (P-gp): 3900 nM
CPY3A4 CLint (CYP3A4 [3]): 105 µL/min/nmol
fup ([4]; lapatinib, ref [4]): 0.01
Rbp ([4]; lapatinib, ref [5]): 0.84

COc1ccc2nc([S@@+]([O-])Cc3ncc(C)c(OC)c3C)[nH]c2c1 [esomeprazole]
Human intragastric mean 24-h pH [5]: 4.78

Cc1c2ccc(N(C)c3ccnc(Nc4ccc(CO)c(S(N)(=O)=O)c4)n3)cc2nn1C [GSK1268997]
Systemic exposure relative to unchanged PAZ [6]: about 2%
Potency towards VEGFR in comparison to PAZ (VEGFR): equal potency

CC(=O)N1CCN(c2ccc(OCC3COC(Cn4ccnc4)(c4ccc(Cl)cc4Cl)O3)cc2)CC1 (stereo not drawn) [ketoconazole]
AUC0-48, Observed ([1]; ketoconazole): 40600 ng·h/mL
Cmax, Observed ([1]; ketoconazole): 6200 ng/mL
Solubility in buffer ([2]; @pH6.5, ref [1]): 6.93 µg/mL (≈ 13 µM)
Log (@pH7.4), lipophilicity ([2]; pH7.4, ref [1]): 2.67
Km (UGT1A1): 22.3 µM
UGT1A1 Vmax (UGT1A1): 9.37 pmol/min/pmol
Rbp ([4]; ketoconazole, ref [1]): 0.59
